Data taken from patent US11198710B2, “Transgenic plant having herbicide resistance” (priority 2016, dated 2021).
pIC50: −log10 of the molar value. Read-outs that look alike come from different tables or passages of the source.

Test system: rice plants comprising the TaQ8GTC0 gene introduced therein
Experiment: Herbicide resistance test of rice plants comprising the TaQ8GTC0 gene, gellan gum medium, plant height
Type: in vivo
Conditions: for pIC50: Oryza sativa, read-out: I50
Experimental: Hoagland's mix and 3 g of gellan gum were suspended in 1 liter of distilled water and thoroughly dissolved therein by heating in a microwave. A fraction of the resultant (15 ml) was injected into a tubular bottle before it was cooled (30 ml was injected into the plate). The herbicide was simultaneously added at the time of injection of the gellan gum medium into the tubular bottle or plate, followed by thorough mixing. Rice hulls were soaked in a 50-fold diluted sodium hypochlorite solution (antiformin) (Wako) for approximately 20 minutes and then thoroughly washed with water. Sterilized seeds were soaked in distilled water and allowed to stand at 27° C. for germination (for approximately 2 days). Germinating seeds were softly planted in the gellan gum medium (plate) containing 0.25 μM BS. These samples, together with a beaker filled with distilled water, were placed in a transparent case, which was then covered with a clear plastic wrap. These samples were grown at 27° C. under fluorescent light illumination (14 hours of a light period and 10 hours of a dark period) for 2 days. Thereafter, rice seeds that were determined to have BS resistance with the use of root elongation as the indicator were transferred to gellan gum media containing pyroxasulfone (tubal bottles) at the final concentrations of 10^−8, 10^−7, 10^−6, and 10^−5M, respectively. Subsequently, these samples, together with a beaker filled with distilled water, were placed in a transparent case, which was then covered with a clear plastic wrap. These samples were grown at 27° C. under fluorescent light illumination (14 hours of a light period and 10 hours of a dark period) for 4 to 5 days, and the plant heights were then measured. Inhibition of shoot growth was determined by comparison to control plants grown in the absence of pyroxasulfone and the concentration for required 50% inhibition (IC50) was determined by the Probit method.
Resistance of rice plants comprising the TaQ8GTC0 gene introduced therein to VLCFAE-inhibiting herbicides was tested in the same manner as with the pyroxasulfone resistance test described above.
FIGS. 7-1 to 7-6 show the results. In FIGS. 7-1 to 7-6, the concentration of 0 μM, the minimal concentration shown in Table 4 (×1), the concentration 4 times higher than the minimal concentration shown in Table 4 (×4), and the concentration 16 times higher than the minimal concentration shown in Table 4 (×16) are shown successively from left to right.

In the case of `Cn1nc(C(F)(F)F)c(CS(=O)(=O)C2=NOC(C)(C)C2)c1OC(F)F` [Pyroxasulfone, 3-[5-(difluoromethoxy)-1-methyl-3-(trifluoromethyl)pyrazol-4-ylmethylsulfonyl]-4,5-dihydro-5,5-dimethyl-1,2-oxazole], the “pyroxasulfone resistance relative to wild-type plants” value (16 lines among 18 lines used in the test) was no less than 10 times, the pIC50 (lineage #1-3) was 5.94 and the pIC50 (lineage #1-4) was 5.88. It also gave a pIC50 (lineage #1-7) of 6.01, a pIC50 (lineage #1-10) of 6.29 and a pIC50 (lineage #2-6) of 6.01. It also gave a pIC50 (lineage #2-9) of 5.96, a pIC50 (lineage #3-4) of 5.76 and a pIC50 (lineage #3-9) of 6.00. It also gave a pIC50 (lineage #3-12) of 7.17, a pIC50 (lineage #3-13) of 4.86 and a pIC50 (lineage #4-1) of 6.30. It also gave a pIC50 (lineage #4-3) of 5.37, a pIC50 (lineage #4-7) of 5.15 and a pIC50 (lineage #4-10) of 5.67. It also gave a pIC50 (lineage #4-13) of 5.41, a pIC50 (lineage #4-14) of 7.35 and a pIC50 (lineage #5-1) of 6.01. For the same compound, the pIC50 (lineage #5-11) was 6.01, the “Pyroxasulfone resistance (ratio of IC50 of transformed rice to IC50 of wild-type rice)” value (lineage #1-3) was 29 and the “Pyroxasulfone resistance (ratio of IC50 of transformed rice to IC50 of wild-type rice)” value (lineage #1-4) was 33. The “Pyroxasulfone resistance (ratio of IC50 of transformed rice to IC50 of wild-type rice)” value (lineage #1-7) was 25, the “Pyroxasulfone resistance (ratio of IC50 of transformed rice to IC50 of wild-type rice)” value (lineage #1-10) was 13 and the “Pyroxasulfone resistance (ratio of IC50 of transformed rice to IC50 of wild-type rice)” value (lineage #2-6) was 25. The “Pyroxasulfone resistance (ratio of IC50 of transformed rice to IC50 of wild-type rice)” value (lineage #2-9) was 28, the “Pyroxasulfone resistance (ratio of IC50 of transformed rice to IC50 of wild-type rice)” value (lineage #3-4) was 44 and the “Pyroxasulfone resistance (ratio of IC50 of transformed rice to IC50 of wild-type rice)” value (lineage #3-9) was 26. The “Pyroxasulfone resistance (ratio of IC50 of transformed rice to IC50 of wild-type rice)” value (lineage #3-12) was 2, the “Pyroxasulfone resistance (ratio of IC50 of transformed rice to IC50 of wild-type rice)” value (lineage #3-13) was 353 and the “Pyroxasulfone resistance (ratio of IC50 of transformed rice to IC50 of wild-type rice)” value (lineage #3-13, listed as pyroxasulfone) was “approximately 350”. For the same compound, the “growth of rice plants comprising the TaQ8GTC0 gene on herbicide medium” value (lineage #3-13, minimal concentration (×1), ×4 and ×16 of Table 4) was “the growth thereof was not affected at the maximal test concentration”, the “Pyroxasulfone resistance (ratio of IC50 of transformed rice to IC50 of wild-type rice)” value (lineage #4-1) was 13 and the “Pyroxasulfone resistance (ratio of IC50 of transformed rice to IC50 of wild-type rice)” value (lineage #4-3) was 111. For the same compound, the “Pyroxasulfone resistance (ratio of IC50 of transformed rice to IC50 of wild-type rice)” value (lineage #4-7) was 183, the resistance to pyroxasulfone (lineage #4-7, no data disclosed) was “high level of resistance” and the “Pyroxasulfone resistance (ratio of IC50 of transformed rice to IC50 of wild-type rice)” value (lineage #4-10) was 54. The “Pyroxasulfone resistance (ratio of IC50 of transformed rice to IC50 of wild-type rice)” value (lineage #4-13) was 99, the “Pyroxasulfone resistance (ratio of IC50 of transformed rice to IC50 of wild-type rice)” value (lineage #4-14) was 1 and the “Pyroxasulfone resistance (ratio of IC50 of transformed rice to IC50 of wild-type rice)” value (lineage #5-1) was 25. The “Pyroxasulfone resistance (ratio of IC50 of transformed rice to IC50 of wild-type rice)” value (lineage #5-11) was 25.
